IC50 data for 19 compounds are collected here from patent publication US9040528B2, “Chemical compounds 542” (AstraZeneca AB, priority 2008, dated 2015).

The assay concerns the target Escherichia coli DNA gyrase A/B tetramer (Escherichia coli (strain K12), UniProt P0AES4+P0AES6). Description: DNA gyrase supercoiling activity fluorescence polarisation assay. In kind it is biochemical. The following applies: 5 nM enzyme, relaxed plasmid, 0.3 mM ATP, ambient temperature; read-out: E. coli DNA gyrase supercoiling IC50. In short, it runs like this: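 Supercoiling reactions quenched with 40 nM 5′-BODIPY-FL triplex-forming oligonucleotide probe in pH 3.5 NaCl/sodium acetate buffer; after 60 min, fluorescence anisotropy read (ex 485/em 535 nm). IC50 by nonlinear regression, normalised to 0.8% DMSO (100% activity) and 5 μM ciprofloxacin (0% activity).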
(Polarisation of emitted light reports the rotation of a fluorescent probe.)
For `C[C@H]1CN2c3c(nc4c(-c5nccs5)noc4c3Cl)CC3(C(=O)NC(=O)NC3=O)[C@@H]2[C@@H](C)O1` [Example 111(a), (2S,4R,4aR)-11-chloro-2,4-dimethyl-8-(thiazol-2-yl)-2,4,4a,6-tetrahydro-1H,1′H-spiro[isoxazolo[4,5-g][1,4]oxazino[4,3-a][1,5]naphthyridine-5,5′-pyrimidine]-2′,4′,6′(3′H)-trione], the IC50 – broadly, the concentration needed to halve the response being measured – stood at 83000 nM.

For `C[C@@H]1CN2c3c(nc4c(-c5nccs5)noc4c3Cl)CC3(C(=O)NC(=O)NC3=O)[C@H]2[C@H](C)O1` [Example 111(b), (2R,4S,4aS)-11-chloro-2,4-dimethyl-8-(thiazol-2-yl)-2,4,4a,6-tetrahydro-1H,1′H-spiro[isoxazolo[4,5-g][1,4]oxazino[4,3-a][1,5]naphthyridine-5,5′-pyrimidine]-2′,4′,6′(3′H)-trione], the IC50 stood at 1100 nM. The value for `CNC(=O)c1noc2c(F)c3c(cc12)CC1(C(=O)NC(=O)NC1=O)[C@H]1[C@H](C)O[C@H](C)CN31` [Example 140(a), (2R,4S,4aS)-11-fluoro-N,2,4-trimethyl-2′,4′,6′-trioxo-2,2′,3′,4,4a,4′,6,6′-octahydro-1H,1′H-spiro[isoxazolo[4,5-g][1,4]oxazino[4,3-a]quinoline-5,5′-pyrimidine]-8-carboxamide] was 900 nM; that for `CC(C)NC(=O)c1noc2c(F)c3c(cc12)CC1(C(=O)NC(=O)NC1=O)[C@H]1[C@H](C)O[C@H](C)CN31` [Example 147(a), (2R,4S,4aS)-11-fluoro-N-isopropyl-2,4-dimethyl-2′,4′,6′-trioxo-2,2′,3′,4,4a,4′,6,6′-octahydro-1H,1′H-spiro[isoxazolo[4,5-g][1,4]oxazino[4,3-a]quinoline-5,5′-pyrimidine]-8-carboxamide] was 900 nM; that for `C[C@H]1CN2c3c(cc4c(-c5ncccn5)noc4c3F)CC3(C(=O)NC(=O)NC3=O)[C@@H]2[C@@H](C)O1` [Example 148(a), (2S,4R,4aR)-11-fluoro-2,4-dimethyl-8-(pyrimidin-2-yl)-2,4,4a,6-tetrahydro-1H,1′H-spiro[isoxazolo[4,5-g][1,4]oxazino[4,3-a]quinoline-5,5′-pyrimidine]-2′,4′,6′(3′H)-trione] was 83000 nM.

Take `C[C@@H]1CN2c3c(cc4c(-c5ncccn5)noc4c3F)CC3(C(=O)NC(=O)NC3=O)[C@H]2[C@H](C)O1` [Example 148(b), (2R,4S,4aS)-11-fluoro-2,4-dimethyl-8-(pyrimidin-2-yl)-2,4,4a,6-tetrahydro-1H,1′H-spiro[isoxazolo[4,5-g][1,4]oxazino[4,3-a]quinoline-5,5′-pyrimidine]-2′,4′,6′(3′H)-trione]: the IC50 is 400 nM.

As for `C[C@@H]1CN2c3c(cc4c(-c5cnccn5)noc4c3F)CC3(C(=O)NC(=O)NC3=O)[C@H]2[C@H](C)O1` [Example 165(b), (2R,4S,4aS)-11-fluoro-2,4-dimethyl-8-(pyrazin-2-yl)-2,4,4a,6-tetrahydro-1H,1′H-spiro[isoxazolo[4,5-g][1,4]oxazino[4,3-a]quinoline-5,5′-pyrimidine]-2′,4′,6′(3′H)-trione], the IC50 was determined as 200 nM. The value for `C[C@@H]1CN2c3c(cc4c(-c5cnc(N6CCOCC6)cn5)noc4c3F)CC3(C(=O)NC(=O)NC3=O)[C@@H]2[C@@H](C)O1` [Example 166(a), (2R,4R,4aR)-11-fluoro-2,4-dimethyl-8-(5-morpholinopyrazin-2-yl)-2,4,4a,6-tetrahydro-1H,1′H-spiro[isoxazolo[4,5-g][1,4]oxazino[4,3-a]quinoline-5,5′-pyrimidine]-2′,4′,6′(3′H)-trione] was 83000 nM; that for `C[C@@H]1CN2c3c(cc4c(-c5cnc(N6CCOCC6)cn5)noc4c3F)CC3(C(=O)NC(=O)NC3=O)[C@H]2[C@H](C)O1` [Example 166(b), (2R,4S,4aS)-11-fluoro-2,4-dimethyl-8-(5-morpholinopyrazin-2-yl)-2,4,4a,6-tetrahydro-1H,1′H-spiro[isoxazolo[4,5-g][1,4]oxazino[4,3-a]quinoline-5,5′-pyrimidine]-2′,4′,6′(3′H)-trione] was 6900 nM; that for `COc1cncc(-c2noc3c(F)c4c(cc23)CC2(C(=O)NC(=O)NC2=O)[C@H]2[C@H](C)O[C@H](C)CN42)n1` [Example 167, (2R,4S,4aS)-11-fluoro-8-(6-methoxypyrazin-2-yl)-2,4-dimethyl-2,4,4a,6-tetrahydro-1H,1′H-spiro[isoxazolo[4,5-g][1,4]oxazino[4,3-a]quinoline-5,5′-pyrimidine]-2′,4′,6′(3′H)-trione] was 1100 nM. The value for `CSc1nccc(-c2noc3c(F)c4c(cc23)CC2(C(=O)NC(=O)NC2=O)[C@H]2[C@H](C)O[C@H](C)CN42)n1` [Example 168, (2R,4S,4aS)-11-fluoro-2,4-dimethyl-8-(2-(methylthio)pyrimidin-4-yl)-2,4,4a,6-tetrahydro-1H,1′H-spiro[isoxazolo[4,5-g][1,4]oxazino[4,3-a]quinoline-5,5′-pyrimidine]-2′,4′,6′(3′H)-trione] was 600 nM; that for `COCCNc1nccc(-c2noc3c(F)c4c(cc23)CC2(C(=O)NC(=O)NC2=O)[C@H]2[C@H](C)O[C@H](C)CN42)n1` [Example 170, (2R,4S,4aS)-11-fluoro-8-(2-(2-methoxyethylamino)pyrimidin-4-yl)-2,4-dimethyl-2,4,4a,6-tetrahydro-1H,1′H-spiro[isoxazolo[4,5-g][1,4]oxazino[4,3-a]quinoline-5,5′-pyrimidine]-2′,4′,6′(3′H)-trione] was 700 nM; that for `C[C@@H]1CN2c3c(cc4c(-c5ccnc(NCCO)n5)noc4c3F)CC3(C(=O)NC(=O)NC3=O)[C@H]2[C@H](C)O1` [Example 171, (2R,4S,4aS)-11-fluoro-8-(2-(2-hydroxyethylamino)pyrimidin-4-yl)-2,4-dimethyl-2,4,4a,6-tetrahydro-1H,1′H-spiro[isoxazolo[4,5-g][1,4]oxazino[4,3-a]quinoline-5,5′-pyrimidine]-2′,4′,6′(3′H)-trione] was 300 nM. In the case of `COc1nccc(-c2noc3c(F)c4c(cc23)CC2(C(=O)NC(=O)NC2=O)[C@H]2[C@H](C)O[C@H](C)CN42)n1` [Example 172, (2R,4S,4aS)-11-fluoro-8-(2-methoxypyrimidin-4-yl)-2,4-dimethyl-2,4,4a,6-tetrahydro-1H,1′H-spiro[isoxazolo[4,5-g][1,4]oxazino[4,3-a]quinoline-5,5′-pyrimidine]-2′,4′,6′(3′H)-trione] it was 900 nM. As for `C[C@@H]1CN2c3c(cc4c(-c5ccnc(C#N)n5)noc4c3F)CC3(C(=O)NC(=O)NC3=O)[C@H]2[C@H](C)O1` [Example 173, 4-((2R,4S,4aS)-11-fluoro-2,4-dimethyl-2′,4′,6′-trioxo-2,2′,3′,4,4a,4′,6,6′-octahydro-1H,1′H-spiro[isoxazolo[4,5-g][1,4]oxazino[4,3-a]quinoline-5,5′-pyrimidine]-8-yl)pyrimidine-2-carbonitrile], the IC50 worked out at 100 nM. In the case of `C[C@@H]1CN2c3c(cc4c(-c5ccnc(N)n5)noc4c3F)CC3(C(=O)NC(=O)NC3=O)[C@H]2[C@H](C)O1` [Example 174, (2R,4S,4aS)-8-(2-aminopyrimidin-4-yl)-11-fluoro-2,4-dimethyl-2,4,4a,6-tetrahydro-1H,1′H-spiro[isoxazolo[4,5-g][1,4]oxazino[4,3-a]quinoline-5,5′-pyrimidine]-2′,4′,6′(3′H)-trione] it was 500 nM; in that of `C[C@@H]1CN2c3c(cc4c(-c5ccnc(O)n5)noc4c3F)CC3(C(=O)NC(=O)NC3=O)[C@H]2[C@H](C)O1` [Example 175, (2R,4S,4aS)-11-fluoro-8-(2-hydroxypyrimidin-4-yl)-2,4-dimethyl-1,2,4,4a-tetrahydro-2′H,6H-spiro[isoxazolo[4,5-g][1,4]oxazino[4,3-a]quinoline-5,5′-pyrimidine]-2′,4′,6′(1′H,3′H)-trione], 900 nM.

Turning to `C[C@@H]1CN2c3c(cc4c(-c5ccnc(N6CCOCC6)n5)noc4c3F)CC3(C(=O)NC(=O)NC3=O)[C@H]2[C@H](C)O1` [Example 176, (2R,4S,4aS)-11-fluoro-2,4-dimethyl-8-(2-morpholinopyrimidin-4-yl)-2,4,4a,6-tetrahydro-1H,1′H-spiro[isoxazolo[4,5-g][1,4]oxazino[4,3-a]quinoline-5,5′-pyrimidine]-2′,4′,6′(3′H)-trione], the IC50 was 3200 nM. In the case of `C[C@@H]1CN2c3c(cc4c(-c5ncnn5C)noc4c3F)CC3(C(=O)NC(=O)NC3=O)[C@H]2[C@H](C)O1` [Example 178, (2R,4S,4aS)-11-fluoro-2,4-dimethyl-8-(1-methyl-1H-1,2,4-triazol-5-yl)-2,4,4a,6-tetrahydro-1H,1′H-spiro[isoxazolo[4,5-g][1,4]oxazino[4,3-a]quinoline-5,5′-pyrimidine]-2′,4′,6′(3′H)-trione] it was 1300 nM.
